Laboratory results reported in ChEMBL document CHEMBL4765277, “Design, synthesis and biological evaluation of novel indazole-based derivatives as potent HDAC inhibitors via fragment-based virtual screening” (Eur J Med Chem, 2020).
Calls of active or inactive are those of the source. No cut-off for these calls is given here.

Tests used:
Histone deacetylase 8 = target: T1, Histone deacetylase 8 (Homo sapiens, UniProt Q9BY41); experiment: Inhibition of recombinant human full length C-terminal His-tagged HDAC8 expressed in sf9 insect cells using Boc-Lys(TFA)-AM as substrate incubated for 60 mins by fluorescence assay
T1 sequence (Q9BY41 whole entry): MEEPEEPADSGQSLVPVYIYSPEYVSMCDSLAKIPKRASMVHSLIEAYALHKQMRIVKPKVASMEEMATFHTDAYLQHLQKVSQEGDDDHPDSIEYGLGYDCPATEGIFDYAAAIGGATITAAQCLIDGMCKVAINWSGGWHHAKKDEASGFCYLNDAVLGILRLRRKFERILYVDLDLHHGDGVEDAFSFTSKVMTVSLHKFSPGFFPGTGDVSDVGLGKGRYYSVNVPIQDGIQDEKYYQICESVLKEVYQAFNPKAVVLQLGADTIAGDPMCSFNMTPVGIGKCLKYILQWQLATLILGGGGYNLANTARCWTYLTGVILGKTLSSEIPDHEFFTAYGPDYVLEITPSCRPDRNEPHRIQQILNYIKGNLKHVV

Histone deacetylase 2 = Histone deacetylase 2 (Homo sapiens, UniProt Q92769); experiment: Inhibition of recombinant human C-terminal His-tagged HDAC2 (1 to end residues) expressed in sf9 insect cells using Boc-Lys(Ac)-AMC as substrate incubated for 60 mins by fluorescence assay
Histone deacetylase 2, sequence (Q92769 whole entry): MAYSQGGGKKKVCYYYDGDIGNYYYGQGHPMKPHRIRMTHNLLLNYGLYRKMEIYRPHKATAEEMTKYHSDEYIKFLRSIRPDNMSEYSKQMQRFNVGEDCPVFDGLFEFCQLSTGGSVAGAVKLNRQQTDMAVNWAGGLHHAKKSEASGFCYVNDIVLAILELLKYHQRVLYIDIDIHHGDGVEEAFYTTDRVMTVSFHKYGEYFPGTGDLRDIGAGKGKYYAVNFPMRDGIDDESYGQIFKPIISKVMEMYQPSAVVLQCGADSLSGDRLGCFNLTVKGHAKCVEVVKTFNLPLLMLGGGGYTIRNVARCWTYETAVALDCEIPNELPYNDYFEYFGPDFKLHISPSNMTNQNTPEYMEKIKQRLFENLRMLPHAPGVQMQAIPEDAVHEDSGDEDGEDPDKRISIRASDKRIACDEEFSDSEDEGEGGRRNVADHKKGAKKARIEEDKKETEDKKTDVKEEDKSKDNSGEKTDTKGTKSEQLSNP

HCT-116 [1] = experiment: Antiproliferative activity against human HCT-116 cells assessed as reduction in cell viability after 72 hrs by MTT assay; format: functional, cell-based; conditions: HCT-116, 72 h
MCF7 = experiment: cells; conditions: Homo sapiens, MCF7, 72 h
Description: Antiproliferative activity against human MCF7 cells assessed as reduction in cell viability after 72 hrs by MTT assay

Histone deacetylase 1 = Histone deacetylase 1 (Homo sapiens, UniProt Q13547); experiment: Inhibition of recombinant human C-terminal His/FLAG-tagged HDAC1 (1 to end residues) expressed in sf9 insect cells using Boc-Lys(Ac)-AMC as substrate incubated for 60 mins by fluorescence assay
Histone deacetylase 1, sequence (Q13547 whole entry): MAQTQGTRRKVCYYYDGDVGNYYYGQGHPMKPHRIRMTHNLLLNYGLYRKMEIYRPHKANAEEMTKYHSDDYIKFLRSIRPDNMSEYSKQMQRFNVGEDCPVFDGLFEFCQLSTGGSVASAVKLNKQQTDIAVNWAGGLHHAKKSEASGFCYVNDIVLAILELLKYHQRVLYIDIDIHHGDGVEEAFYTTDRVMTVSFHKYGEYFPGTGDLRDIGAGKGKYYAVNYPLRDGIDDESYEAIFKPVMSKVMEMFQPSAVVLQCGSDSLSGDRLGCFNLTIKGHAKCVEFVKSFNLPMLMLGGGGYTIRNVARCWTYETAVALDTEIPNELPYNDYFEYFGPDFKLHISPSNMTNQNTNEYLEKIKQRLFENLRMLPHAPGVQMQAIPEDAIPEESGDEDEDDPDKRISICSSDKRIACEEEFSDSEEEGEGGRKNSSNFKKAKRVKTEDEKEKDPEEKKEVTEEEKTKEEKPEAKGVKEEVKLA

HeLa = experiment: cells; format: functional, cell-based; conditions: Homo sapiens, 72 h
Description: Antiproliferative activity against human HeLa cells assessed as reduction in cell viability after 72 hrs by MTT assay

HCT-116 [2] = experiment: Induction of apoptosis in human HCT-116 cells assessed as early apoptotic cells at 10 uM after 24 hrs by Annexin V-FITC/PI staining based flow cytometric analysis (reference value: 4.01%); format: functional
HCT-116 [3] = experiment: Inhibition of HDAC in human HCT-116 cells assessed as up regulation of acetylated tubulin protein expression at 1.25 to 10 uM after 8 hrs by Western blot analysis; format: cell-based; conditions: dose 1.25-10 µM
HCT-116 [4] = experiment: Induction of apoptosis in human HCT-116 cells assessed as viable cells at 1 uM after 24 hrs by Annexin V-FITC/PI staining based flow cytometric analysis (reference value: 90.34%); format: functional; conditions: for viability at 1 µM: Homo sapiens, HCT-116, read-out: Activity
HCT-116 [5] = experiment: Induction of cell cycle arrest in human HCT116 cells assessed as cell accumulation at S phase at 3 uM after 24 hrs by Rnase/PI staining based flow cytometric analysis (reference value: 25.2%); format: functional
HCT-116 [6] = experiment: Induction of apoptosis in human HCT-116 cells assessed as late apoptotic cells at 1 uM after 24 hrs by Annexin V-FITC/PI staining based flow cytometric analysis (reference value: 5.14%); format: functional
HCT-116 [7] = experiment: Induction of apoptosis in human HCT-116 cells assessed as early apoptotic cells at 3 uM after 24 hrs by Annexin V-FITC/PI staining based flow cytometric analysis (reference value: 4.01%); format: functional
HCT-116 [8] = experiment: Induction of apoptosis in human HCT-116 cells assessed as necrotic cells at 10 uM after 24 hrs by Annexin V-FITC/PI staining based flow cytometric analysis (reference value: 0.51%); format: functional
HCT-116 [9] = experiment: Induction of apoptosis in human HCT-116 cells assessed as necrotic cells at 1 uM after 24 hrs by Annexin V-FITC/PI staining based flow cytometric analysis (reference value: 0.51%); format: functional
HCT-116 [10] = experiment: Induction of cell cycle arrest in human HCT116 cells assessed as cell accumulation at G2/M phase at 3 uM after 24 hrs by Rnase/PI staining based flow cytometric analysis (reference value: 26.4%); format: functional
HCT-116 [11] = experiment: Induction of apoptosis in human HCT-116 cells assessed as viable cells at 10 uM after 24 hrs by Annexin V-FITC/PI staining based flow cytometric analysis (reference value: 90.34%); format: functional; conditions: read-out: Activity
HCT-116 [12] = experiment: Induction of apoptosis in human HCT-116 cells assessed as early apoptotic cells at 1 uM after 24 hrs by Annexin V-FITC/PI staining based flow cytometric analysis (reference value: 4.01%); format: functional
HCT-116 [13] = experiment: Induction of apoptosis in human HCT-116 cells assessed as late apoptotic cells at 3 uM after 24 hrs by Annexin V-FITC/PI staining based flow cytometric analysis (reference value: 5.14%); format: functional
HCT-116 [14] = experiment: Induction of apoptosis in human HCT-116 cells assessed as necrotic cells at 3 uM after 24 hrs by Annexin V-FITC/PI staining based flow cytometric analysis (reference value: 0.51%); format: functional
HCT-116 [15] = experiment: Induction of cell cycle arrest in human HCT116 cells assessed as cell accumulation at G0/G1 phase at 3 uM after 24 hrs by Rnase/PI staining based flow cytometric analysis (reference value: 48.4%); format: functional
HCT-116 [16] = experiment: Induction of apoptosis in human HCT-116 cells assessed as viable cells at 3 uM after 24 hrs by Annexin V-FITC/PI staining based flow cytometric analysis (reference value: 90.34%); format: functional; conditions: for viability at 3 µM: Homo sapiens, HCT-116, read-out: Activity
HCT-116 [17] = experiment: Induction of apoptosis in human HCT-116 cells assessed as late apoptotic cells at 10 uM after 24 hrs by Annexin V-FITC/PI staining based flow cytometric analysis (reference value: 5.14%); format: functional
HCT-116 [18] = experiment: Inhibition of HDAC in human HCT-116 cells assessed as up regulation of acetylated histone H3 protein expression at 1.25 to 10 uM after 8 hrs by Western blot analysis; format: cell-based; conditions: dose 1.25-10 µM
HCT-116 [19] = experiment: Induction of apoptosis in human HCT-116 cells after 24 hrs by Annexin V-FITC/PI staining based flow cytometric analysis; format: functional, cell-based

SMILES	IC50 (Histone deacetylase 8) [nM]	IC50 (Histone deacetylase 2) [nM]	IC50 (HCT-116 [1]) [nM]	IC50 (MCF7) [nM]	IC50 (Histone deacetylase 1) [nM]	IC50 (HeLa) [nM]	other results
O=C(CCCCCCC(=O)Nc1n[nH]c2cc(-c3ccccc3F)ccc12)NO	2.4	4.4	4100	2500	1.8	13800	–
COc1cccc(-c2ccc3c(NC(=O)C4CCC(C(=O)NO)CC4)n[nH]c3c2)c1 (stereo unspecified)	3340	4630	47400	> 50000	2420	> 50000	–
O=C(CCCCCCC(=O)Nc1n[nH]c2cc(-c3cccc(C(F)(F)F)c3)ccc12)NO	4.1	5	2900	47300	2.5	6000	–
O=C(CCCCCCC(=O)Nc1n[nH]c2cc(-c3ccsc3)ccc12)NO	32.5	31.6	7500	8300	36.2	29500	–
O=C(CCCCCCC(=O)Nc1ccccc1)NO [VORINOSTAT]	–	–	4900	800	–	–	Activity (HCT-116 [2]): 14.44%; Activity (HCT-116 [4]): 77.54%; Activity (HCT-116 [5]): 29.4%; Activity (HCT-116 [6]): 57.83%; Activity (HCT-116 [7]): 12.27%; Activity (HCT-116 [8]): 1.37%; Activity (HCT-116 [10]): 44.2%; Activity (HCT-116 [12]): 12.87%; Activity (HCT-116 [13]): 67.78%; Activity (HCT-116 [14]): 2.03%; Activity (HCT-116 [15]): 26.2%; Activity (HCT-116 [16]): 17.93%; Activity (HCT-116 [17]): 67.72%
CCOc1cccc(-c2ccc3c(NC(=O)CCCCCCC(=O)NO)n[nH]c3c2)c1	3.4	4.2	4200	2400	2.1	10800	–
O=C(CCCCCCC(=O)Nc1n[nH]c2cc(-c3ccccc3)ccc12)NO	12.6	13.1	10200	5500	9.6	12500	–
COc1cccc(-c2ccc3c(NC(=O)CCCCC(=O)NO)n[nH]c3c2)c1	41	62	23500	4400	13	5800	–
O=C(CCCCCCC(=O)Nc1n[nH]c2cc(-c3cccc(Cl)c3)ccc12)NO	3.8	4	41800	27500	3.7	200	–
O=C(CCCCCCC(=O)Nc1n[nH]c2cc(-c3ccncc3)ccc12)NO	24.5	25.9	12300	40100	23	6900	–
COc1cccc(-c2ccc3c(NC(=O)CCCCCCC(=O)NO)n[nH]c3n2)c1	3.3	5.3	2700	8600	2.4	3600	–
COc1ccc(-c2ccc3c(NC(=O)CCCCCCC(=O)NO)n[nH]c3c2)cc1OC	3.2	4.6	14600	10900	3.4	21300	–
COc1cccc(-c2ccc3c(NC(=O)CCCCCCC(=O)NO)n[nH]c3c2)c1F	4.4	6	7600	2000	3.1	9800	–
COc1cc(OC)cc(-c2ccc3c(NC(=O)CCCCCCC(=O)NO)n[nH]c3c2)c1	4.4	4.8	9500	55200	4.6	7300	–

The next lines start with results.

IC50 (Histone deacetylase 8) [nM]	IC50 (Histone deacetylase 2) [nM]	IC50 (HCT-116 [1]) [nM]	IC50 (MCF7) [nM]	IC50 (Histone deacetylase 1) [nM]	IC50 (HeLa) [nM]	SMILES	other results
3.3	3.6	3900	1000	3.1	4800	O=C(CCCCCCC(=O)Nc1n[nH]c2cc(-c3ccc(Cl)cc3)ccc12)NO	Activity (HCT-116 [2]): 12.32%; inhibition (HCT-116 [3]): Active; viability at 1 µM (HCT-116 [4]): 40.6%; Activity (HCT-116 [5]): 29.7%; Activity (HCT-116 [6]): 46.29%; Activity (HCT-116 [7]): 10.36%; Activity (HCT-116 [8]): 2.47%; Activity (HCT-116 [9]): 2.41%; Activity (HCT-116 [10]): 44.1%; viability at 10 µM (HCT-116 [11]): 23.2%; Activity (HCT-116 [12]): 8.73%; Activity (HCT-116 [13]): 64.75%; Activity (HCT-116 [14]): 0.86%; Activity (HCT-116 [15]): 26.2%; viability at 3 µM (HCT-116 [16]): 24%; Activity (HCT-116 [17]): 61.98%; inhibition (HCT-116 [18]): Active; Activity (HCT-116 [19]): Dose-dependent effect
4.2	5.4	2700	5700	4.6	5900	COc1ccccc1-c1ccc2c(NC(=O)CCCCCCC(=O)NO)n[nH]c2c1	–
4.5	63	10600	7400	2.6	20100	COc1cccc(-c2ccc3c(NC(=O)CCCCCC(=O)NO)n[nH]c3c2)c1	–
4.9	3.5	7500	4900	3	3300	COc1ccc(F)c(-c2ccc3c(NC(=O)CCCCCCC(=O)NO)n[nH]c3c2)c1	–
7.2	9	4100	1200	6	4800	COc1ccc(-c2ccc3c(NC(=O)CCCCCCC(=O)NO)n[nH]c3n2)cc1	Activity (HCT-116 [2]): 5.75%; inhibition (HCT-116 [3]): Active; viability at 1 µM (HCT-116 [4]): 91.8%; Activity (HCT-116 [5]): 26.1%; Activity (HCT-116 [6]): 5.52%; Activity (HCT-116 [7]): 2.89%; Activity (HCT-116 [8]): 1.1%; Activity (HCT-116 [9]): 0.31%; Activity (HCT-116 [10]): 23.9%; viability at 10 µM (HCT-116 [11]): 79.8%; Activity (HCT-116 [12]): 2.34%; Activity (HCT-116 [13]): 7.8%; Activity (HCT-116 [14]): 0.24%; Activity (HCT-116 [15]): 50%; viability at 3 µM (HCT-116 [16]): 89.1%; Activity (HCT-116 [17]): 13.34%; inhibition (HCT-116 [18]): Active
4	5.2	2600	2200	2.7	8100	O=C(CCCCCCC(=O)Nc1n[nH]c2cc(-c3ccccc3Cl)ccc12)NO	–
3	3.9	8100	19100	1.9	3000	COc1cccc(-c2ccc3c(NC(=O)CCCCCCC(=O)NO)n[nH]c3c2)c1	–
54	168	> 50000	41500	76	> 50000	COc1cccc(-c2ccc3c(NC(=O)CCCC(=O)NO)n[nH]c3c2)c1	–
